The target in assay [1] is T1, glutathione-S-transferase (GST) tagged LXRbeta LBD (ligand binding domain) (Homo sapiens, UniProt P55055).
T1 construct: purchased Invitrogen pv4658.pps
T1 sequence (P55055 222-460 limits assumed): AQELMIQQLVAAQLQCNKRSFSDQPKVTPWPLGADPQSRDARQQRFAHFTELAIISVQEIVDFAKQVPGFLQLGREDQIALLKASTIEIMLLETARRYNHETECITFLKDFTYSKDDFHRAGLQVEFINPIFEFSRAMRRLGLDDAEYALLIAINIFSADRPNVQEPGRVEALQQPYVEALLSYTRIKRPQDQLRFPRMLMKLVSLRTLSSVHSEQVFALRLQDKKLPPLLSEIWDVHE
Put plainly: LanthaScreen TR-FRET Liver X Receptor Coactivator Assay, co-activator recruitment to LXRbeta LBD. Type of assay: biochemical. The essentials: (§1)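 Compound-induced coactivator recruitment by the GST-fused ligand binding domain, detected as TR-FRET between Tb-labelled anti-GST antibody and fluorescein-tagged coactivator peptide after room-temperature incubation. IP and Emax expressed versus T0901317 as reference agonist.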

Assay [2] has as its target T2, glutathione-S-transferase (GST) tagged LXRalpha LBD (ligand binding domain) (Homo sapiens, UniProt Q13133).
T2 construct: purchased Invitrogen pv4655
T2 sequence (Q13133 209-447 limits assumed): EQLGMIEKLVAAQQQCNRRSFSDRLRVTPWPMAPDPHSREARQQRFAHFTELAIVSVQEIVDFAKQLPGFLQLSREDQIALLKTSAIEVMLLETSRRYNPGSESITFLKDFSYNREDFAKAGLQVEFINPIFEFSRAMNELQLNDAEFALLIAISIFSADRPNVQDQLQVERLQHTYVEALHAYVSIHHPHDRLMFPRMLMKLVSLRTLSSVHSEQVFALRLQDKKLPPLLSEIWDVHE
In words: LanthaScreen TR-FRET Liver X Receptor Coactivator Assay, co-activator recruitment to LXRalpha LBD. Type of assay: biochemical. The essentials: as §1

[3] abbreviates: efficacy at max dose, in relation to reference dual agonist T0901317, read-out: LXR beta Activity @ max dose (%).
Where [4] appears, read: potency (Inflection Point, IP), co-activator recruitment to LXRbeta LBD, in relation to T0901317, read-out: LXR beta IP.
Where [5] appears, read: efficacy at max dose, in relation to reference dual agonist T0901317, read-out: LXR alpha Activity @ max dose (%).
Where [6] appears, read: potency (Inflection Point, IP), co-activator recruitment to LXRalpha LBD, in relation to T0901317.
Where [7] appears, read: potency (Inflection Point, IP), co-activator recruitment to LXRalpha LBD, in relation to T0901317, read-out: LXR alpha IP.

Where two headings read alike, the source gives them in different places.

With `COc1cccc([C@@](O)(C(=O)N2CCC(CC3CCN(c4ccc(C(=O)N(C)C)c(Cl)c4)CC3)C2)C(F)(F)F)c1` (stereo partly drawn) [Example 2-72, 2-chloro-N,N-dimethyl-4-[4-({1-[(2R)-3,3,3-trifluoro-2-hydroxy-2-(3-methoxy-phenyl)propanoyl]pyrrolidin-3-yl}methyl)piperidin-1-yl]benzamide], the Emax in assay [1] (setting [3]) amounted to 39%; in assay [2] (setting [5]) it was 0%. In assay [1] (setting [4]), the EC50 came to 74 nM. Further, the “LXR alpha IP (nM)” value in assay [2] (setting [6]) is reported as “NO IP”.
For `CCc1cccc(C(O)(C(=O)N2CCC(CC3CCN(c4ccc(C(=O)N(C)C)c(Cl)n4)CC3)CC2)C(F)(F)F)c1` (centres unmarked) [Example 7-90, 2-chloro-6-[4-({1-[2-(3-ethylphenyl)-3,3,3-trifluoro-2-hydroxypropanoyl]piperidin-4-yl}methyl)piperidin-1-yl]-N,N-dimethylpyridine-3-carboxamide] the same measures were 41%, 10%, 6 nM and “NO IP”.
`CN(C)C(=O)c1ccc(N2CCC(CC3CCN(C(=O)C(N)(c4cccc(Cl)c4)C(F)(F)F)CC3)CC2)cc1Cl` (centres unmarked) [Example 2-167, 4-[4-({1-[2-amino-2-(3-chlorophenyl)-3,3,3-trifluoro-propanoyl]piperidin-4-yl}methyl)piperidin-1-yl]-2-chloro-N,N-dimethyl-benzamide]: the figures for the Emax in assay [1] (setting [3]) and in assay [2] (setting [5]) were 75% and 18%, respectively. Further, the EC50 in assay [1] (setting [4]) is 37 nM. Further, the “LXR alpha IP (nM)” value in assay [2] (setting [6]) is on record as “NO IP”.
For `Cc1cc(N2CCC(CC3CCN(C(=O)[C@](O)(c4cc(Cl)cc(Cl)c4)C(F)(F)F)CC3)CC2)ccc1C(=O)N(C)C` [Example 2-154, 4-[4-({1-[(2R)-2-(3,5-dichloro-phenyl)-3,3,3-trifluoro-2-hydroxy-propanoyl]piperidin-4-yl}methyl)piperidin-1-yl]-N,N,2-trimethyl-benzamide] the same measures were 54%, 6%, 23 nM and “NO IP”.
Turning to `Cc1cccc([C@@](O)(C(=O)N2CCC(CC3CCN(c4ccc(C(=O)N(C)C)c(Cl)n4)CC3)CC2)C(F)(F)F)c1` [Example 7-88, 2-chloro-N,N-dimethyl-6-[4-({1-[(2R)-3,3,3-trifluoro-2-hydroxy-2-(3-methylphenyl)propanoyl]piperidin-4-yl}methyl)piperidin-1-yl]pyridine-3-carboxamide], the figures for the Emax in assay [1] (setting [3]) and in assay [2] (setting [5]) were 52% and 15%, respectively. In addition, the EC50 in assay [1] (setting [4]) was 4 nM. In addition, the “LXR alpha IP (nM)” value in assay [2] (setting [6]) was “NO IP”.
For `CN(C)C(=O)c1ccc(N2CCC(CC3CCN(C(=O)C(F)(F)c4ccc(F)cc4)CC3)CC2)nc1Cl` [Example 7-85, 2-chloro-6-[4-({1-[difluoro(4-fluorophenyl)acetyl]piperidin-4-yl}methyl)piperidin-1-yl]-N,N-dimethylpyridine-3-carboxamide] the same measures were 29%, 7%, 236 nM and “NO IP”.
With `CN(C)C(=O)c1ccc(N2CCC(CC3CCN(C(=O)[C@](O)(c4cccc(C#N)c4)C(F)(F)F)CC3)CC2)cc1Cl` [Example 2-88, 2-chloro-4-[4-({1-[(2R)-2-(3-cyanophenyl)-3,3,3-trifluoro-2-hydroxy-propanoyl]piperidin-4-yl}methyl)piperidin-1-yl]-N,N-dimethyl-benzamide], the Emax in assay [1] (setting [3]) was found to be 79%; in assay [2] (setting [5]) it was 29%. The figures for the EC50 in assay [1] (setting [4]) and in assay [2] (setting [7]) were 11 nM and 137 nM, respectively.
In assay [1] (LXR beta IP (nM), potency (Inflection Point, IP), co-activator recruitment to LXRbeta LBD, in relation to T0901317), `COc1cccc([C@@](O)(C(=O)N2CCC(CC3CCN(c4ccc(C(=O)N(C)C)c(Cl)c4)CC3)CC2)C2CC2)c1` [Example 2-114, 2-chloro-4-[4-({1-[(2R)-2-cyclopropyl-2-hydroxy-2-(3-methoxy-phenyl)acetyl]piperidin-4-yl}methyl)piperidin-1-yl]-N,N-dimethyl-benzamide] yielded an EC50 of 266 nM. For the same compound, the Emax in assay [1] (read-out: LXR beta Activity @ max dose (%)) is 19%; in assay [2] (read-out: LXR alpha Activity @ max dose (%)), 6%. In addition, the “LXR alpha IP (nM)” value in assay [2] (setting [6]) is given as “NO IP”.
For `CNC(=O)c1ccc(N2CCC(CC3CCN(C(=O)[C@](O)(c4ccccc4)C(F)(F)F)CC3)CC2)cc1Cl` [Example 7-25, 2-chloro-N-methyl-4-[4-({1-[(2R)-3,3,3-trifluoro-2-hydroxy-2-phenylpropanoyl]piperidin-4-yl}methyl)piperidin-1-yl]benzamide], the Emax in assay [1] (setting [3]) turned out to be 77%; in assay [2] (setting [5]), 44%. Also, the EC50 in assay [1] (setting [4]) amounted to 20 nM; in assay [2] (setting [7]), 343 nM.
`CN(C)C(=O)c1ccc(N2CCC(CC3CN(S(=O)(=O)c4ccccc4)C3)CC2)cc1Cl` [Example 13-1, 2-chloro-N,N-dimethyl-4-(4-((1-(phenylsulfonyl)azetidin-3-yl)methyl)piperidin-1-yl)benzamide]: the EC50 came out at 61 nM in assay [1] (co-activator recruitment to GST-LXRbeta LBD, TR-FRET, read-out: LXR beta IP (Inflection Point, potency)) and 2480 nM in assay [2] (co-activator recruitment to GST-LXRalpha LBD, TR-FRET, read-out: LXR alpha IP (Inflection Point, potency)). Further, the Emax was found to be 73% in assay [1] (read-out: LXR beta Activity @ max dose) and 37% in assay [2] (read-out: LXR alpha Activity @ max dose).
As for `CN(C)C(=O)c1ccc(N2CCC(OC3CCN(C(=O)C4(c5ccccc5)CCC4)CC3)CC2)cc1Cl` [Example 2-27, 2-chloro-N,N-dimethyl-4-[4-({1-[(1-phenyl-cyclobutyl)carbonyl]piperidin-4-yl}oxy)piperidin-1-yl]benzamide], the Emax in assay [1] (setting [3]) worked out at 82%; in assay [2] (setting [5]), 19%. In addition, the values for the EC50 in assay [1] (setting [4]) and in assay [2] (setting [7]) were 371 nM and 4620 nM, respectively.
On to `CN(C)C(=O)c1ccc(N2CCC(CC3CCN(C(=O)C4(c5ccccc5)CCCC4)CC3)CC2)nc1Cl` [Example 7-64, 2-chloro-N,N-dimethyl-6-[4-({1-[(1-phenylcyclopentyl)carbonyl]piperidin-4-yl}methyl)piperidin-1-yl]pyridine-3-carboxamide], for which the Emax in assay [1] (setting [3]) came out at 80%; in assay [2] (setting [5]) it was 19%. In addition, the results for the EC50 in assay [1] (setting [4]) and in assay [2] (setting [7]) were 57 nM and 663 nM, respectively.
Regarding `CNC(=O)c1ccc(N2CCC(OC3CCN(C(=O)C(O)(c4cccc(C)c4)C(F)(F)F)CC3)CC2)cc1Cl` (centres unmarked) [Example 7-29, 2-chloro-N-methyl-4-[4-({1-[3,3,3-trifluoro-2-hydroxy-2-(3-methylphenyl)propanoyl]piperidin-4-yl}oxy)piperidin-1-yl]benzamide], the Emax in assay [1] (setting [3]) was 102%; in assay [2] (setting [5]), 25%. Besides, the EC50 in assay [1] (setting [4]) is 176 nM; in assay [2] (setting [7]), 3240 nM.
With `CN(C)C(=O)c1ccc(N2CCC(CC3CCN(C(=O)[C@](O)(c4cccc(OC(F)(F)F)c4)C(F)(F)F)CC3)CC2)cc1` [Example 2-144, N,N-dimethyl-4-{4-[(1-{(2R)-3,3,3-trifluoro-2-hydroxy-2-[3-(trifluoro-methoxy)phenyl]propanoyl}piperidin-4-yl)methyl]piperidin-1-yl}benzamide], the results for the Emax in assay [1] (setting [3]) and in assay [2] (setting [5]) were 55% and 14%, respectively. In addition, the EC50 in assay [1] (setting [4]) was determined as 78 nM. Moreover, the “LXR alpha IP (nM)” value in assay [2] (setting [6]) is recorded as “NO IP”.
For `CC(C)N(C)C(=O)c1ccc(N2CCC(CC3CCN(C(=O)[C@](O)(c4ccccc4)C(F)(F)F)CC3)CC2)cc1Cl` [Example 4-2, 2-chloro-N-methyl-N-(1-methylethyl)-4-[4-({1-[(2R)-3,3,3-trifluoro-2-hydroxy-2-phenyl-propanoyl]piperidin-4-yl}methyl)piperidin-1-yl]benzamide], the values for the Emax in assay [1] (setting [3]) and in assay [2] (setting [5]) were 73% and 30%, respectively. Also, the EC50 is 29 nM in assay [1] (setting [4]) and 270 nM in assay [2] (setting [7]).
`CN(C)C(=O)c1ccc(N2CCC(CC3(C)CCN(C(=O)[C@](O)(c4cc(F)cc(Cl)c4)C(F)(F)F)CC3)CC2)nc1Cl` [Example 7-46, 2-chloro-6-[4-({1-[(2R)-2-(3-chloro-5-fluorophenyl)-3,3,3-trifluoro-2-hydroxypropanoyl]-4-methylpiperidin-4-yl}methyl)piperidin-1-yl]-N,N-dimethylpyridine-3-carboxamide]: the Emax in assay [1] (setting [3]) amounted to 109%; in assay [2] (setting [5]) it was 46%. Moreover, the EC50 in assay [1] (setting [4]) was 2 nM; in assay [2] (setting [7]), 40 nM.
As to `C[C@H]1CCCN1C(=O)c1ccc(N2CCC(CC3CCN(C(=O)[C@](O)(c4ccccc4)C(F)(F)F)CC3)CC2)cc1Cl` [Example 4-6, (2R)-3-(4-{[1-(3-chloro-4-{[(2S)-2-methyl-pyrrolidin-1-yl]carbonyl}phenyl)piperidin-4-yl]methyl}piperidin-1-yl)-1,1,1-trifluoro-3-trifluoro-3-oxo-2-phenylpropan-2-ol], the Emax in assay [1] (setting [3]) was 78%; in assay [2] (setting [5]), 39%. Also, the EC50 in assay [1] (setting [4]) was 38 nM; in assay [2] (setting [7]), 331 nM.

These data come from patent publication US10752587B2, “Homobispiperidinyl derivatives as liver X receptor beta agonists, compositions and their use” (Merck Sharp & Dohme Corp., priority 2015, dated 2020).
